In US20070298994A1, “Use of 3-Mercapto-3-Methyl-Hexan-1-Ol for Use as Malodour Standard” (SYMRISE GMBH & CO. KG, priority 2004, published 2007):
Read-outs that look alike come from different tables or passages of the source.

Assay: Raw material test against sweat odour (masking of malodour standard, assessor panel)
Settings: for Increase in intensity / Malodour reduction value / Malodour-reduction value: 15 h, scale 1 to 9, standard = 6
[1] = Table 1, 1 μl fragrance + 5 μl 3-mercapto-3-methyl-hexan-1-ol (0.1% in DPG) in 7 l air, 15 h at approx. 20° C., scale 1 to 9, malodour standard mixture = 6, mean of at least 8 assessors
[2] = Table 2 (raw materials without adequate malodour-reducing action), 1 μl fragrance + 5 μl 3-mercapto-3-methyl-hexan-1-ol (0.1% in DPG) in 7 l air
[3] = Table 3 (adequate malodour-reducing action but significant increase in intensity), 1 μl fragrance + 5 μl 3-mercapto-3-methyl-hexan-1-ol (0.1% in DPG) in 7 l air
[4] = prior-art fragrances examined by the applicant

Structure (SMILES)	Increase In intensity [1]	Odour reduction value [1]	also measured
CC1=CC(C)C(C(=O)C(C)(C)C)CC1 (centres unmarked)	1.4	3.5	–
CCOC(C=C(C)CCC=C(C)C)OCC	−0.7	4.3	–
CC1COCc2cc3c(cc21)C(C)(C)C(C)C3(C)C (centres unmarked)	−2.3	4.3	–
CC1OC(C)C2Cc3ccccc3C2O1 (centres unmarked)	1.1	4.1	–
COC1C=C2C(C)(C)C3CCC2(C3)C(C)(C)C1 (centres unmarked)	0.5	4.3	–
CC(=CCC1CCC=C(C)C1(C)C)CO (centres unmarked)	0.0	3.0	–
CC(=CO)CCC1CC=C(C)C1(C)C (centres unmarked)	0.3	3.8>	–
CC1=CCC=C(C)C(O)CCC=C(C)CC1 (centres unmarked)	1.5	4.5	–
Cc1cccc(CC(C)(C)CO)c1	1.2	4.4	–
CC(C)=CCC(C)(C)C(=O)C(C)C	1.0	3.3	–
CC(C)=CCCC(C)=CCCC(C)C=O (centres unmarked)	0.2	3.8	–
CC(=O)C1(C)CC2=C(CCCC2(C)C)CC1C (centres unmarked)	0.2	3.4	–
CC(=O)C(C)=CC1C(C)=CCCC1(C)C (centres unmarked)	−0.7	5.1	–
CCc1ccc(CC(C)(C)C=O)cc1	−1.9	3.7	–
CCCC(=O)C(CC)Cc1ccccc1 (centres unmarked)	0.1	4.6	–
CC(=O)C(C)=C(C)C(C)C(C)(C)C (centres unmarked)	1.6	3.2	–
C=CC(C)(O)CCC=C(C)CC (centres unmarked)	1.0	3.1	–
CC(C)=CCC(C)(C)C1OCC=CCO1	0.0	3.7	–
CC1=CCC(C(C)CC=O)CC1 (centres unmarked)	0.9	3.9	–
C/C=C/C(=O)C1CCC(C)(C)C=C1C (centres unmarked)	1.0	5.0	–
O=C1CCCCCCCCC/C=C/CCCO1	0.0	4.0	–
CC(C)=CCCC(C)CCOCC=O (centres unmarked)	1.5	3.8	–
CCCCCCC1OC(=O)CC1C (mixture of isomers) [(E/Z) 5-HEXYLDIHYDRO-4-METHYL-2-FURANONE]	1.2	4.2	–

Structure (SMILES)	Increase In intensity [1]	Odour reduction value [1]	also measured
CC(=O)O[C@@H]1C[C@H]2CC[C@]1(C)C2(C)C (racemic) [ACETIC ACID ISOBORNYL ESTER, reference compound]	–	–	Increase in intensity [2]: −0.5; Malodour reduction value [2]: 2.3
CCC(O)CC[C@H]1[C@@H](C)CCCC1(C)C (relative stereo)	0.8	3.1	–
CC1=C[C@H](C)[C@H](C=O)CC1 (relative stereo)	−1.3	4.4	–
CC=CC(=O)C1C(C)=CCCC1(C)C (stereo in doubt) [ALPHA-DAMASCONE]	−2.0	4.1	–
c1ccc2c(c1)CC1COCOC21 (centres unmarked) [1,4A,9,9A-TETRAHYDRO-2,4-DIOXA-FLUORENE]	1.0	4.3	–
CC12CCC(CC1)C(C)(C)O2 [1,8-CINEOL, reference compound]	–	–	Increase in intensity [3]: 2.4; Malodour-reduction value [3]: 5.1
CCCCCCO [1-HEXANOL]	1.6	3.6	–
COC(=O)C1CC2(C)C=CC1(C(C)C)CC2 (centres unmarked) [1-ISOPROPYL-4-METHYL-BICYCLO[2.2.2]OCT-5-ENE-2-CARBOXYLIC ACID METHYL ESTER]	−0.8	4.2	–
CC=Cc1ccc(OC)cc1 [1-METHOXY-4-PROPENYL BENZENE, reference compound]	–	–	Increase in intensity [2]: 2.0; Malodour reduction value [2]: 2.0
O=C1CCCCCCCCCCCCCCO1 [1.15-PENTADECANOLIDE]	1.1	3.6	–
COC(=O)c1ccc(O)c(C)c1O [2,4-DIHYDROXY-3-METHYLBENZOIC ACID METHYL ESTER]	0.0	3.0	–
COC(=O)c1c(C)cc(O)c(C)c1O [2,4-DIHYDROXY-3.6-DIMETHYLBENZOIC ACID METHYL ESTER]	1.3	3.8	–
CCOC(=O)C1=C(C)C=CCC1(C)C [2,6,6-TRIMETHYL-1,3-CYCLOHEXADIENE CARBOXYLIC ACID ETHYL ESTER]	−2.8	3.0	–
CC(=O)c1cc2ccccc2o1 [2-ACETYLBENZOFURAN]	1.2	3.3	–
CCCCCCCC1CCCC1=O (centres unmarked) [2-HEPTYL-CYCLOPENTANONE]	1.3	4.5	–
COCc1ccc(O)c(OC)c1 [2-METHOXY-4-METHOXYMETHYL-PHENOL]	−0.1	4.1	–
COCc1ccccc1O [2-METHOXYMETHYLPHENOL]	−2.1	3.8	–
CC(CC#N)CCc1ccccc1 (centres unmarked) [2-METHYL-4-PHENYL BUTYL CYANIDE]	0.2	5.3	–
CC(CO)CCCc1ccccc1 (centres unmarked) [2-METHYL-5-PHENYL PENTANOL]	−0.5	5.1	–
CCCC(C)C(=O)OCC (centres unmarked) [2-METHYL-PENTANOIC ACID ETHYL ESTER]	0.2	4.4	–
CCCCCCCCCC(C)C=O (centres unmarked) [2-METHYLUNDECANAL]	0.7	3.2	–
COC(=O)c1ccccc1N=CC(C)Cc1ccc(C(C)(C)C)cc1 (centres unmarked) [2-[[3-[4-1 1-DIMETHYLETHYL)PHENYL)-2-METHYLPROPLIDEN]AMINO]-BENZOIC ACID METHYL ESTER]	−0.4	3.3	–
O=Cc1ccc2c(c1)OCO2 [3,4-METHYLENDIOXYBENZALDEHYDE]	−1.2	3.7	–

Structure (SMILES)	Increase In intensity [1]	Odour reduction value [1]	also measured
CC(C)CCCC(C)CCO (centres unmarked) [3,7-DIMETHYL OCTANOL, reference compound]	–	–	Increase in intensity [3]: 2.2; Malodour-reduction value [3]: 4.0; intrinsic odour / perfumistic impression (in words) [4]: strong perfumistic impression; reduction in the bad odour based on 3-mercapto-3-methyl-hexan-1-ol (in words) [4]: leads to a malodour reduction
CC(C)=CCCC(C)CC#N (centres unmarked) [3,7-DIMETHYL-6-OCTENE NITRILE]	0.5	4.5	–
CCCCC1COCC(C)C1OC(C)=O (centres unmarked) [3-BUTYL-TETRAHYDRO-5-METHYL-PYRAN-4-OL ACETATE]	1.0	3.0	–
CC(C)c1ccc(CC=O)cc1 [4-(1-METHYLETHYL)-PHENYL ACETALDEHYDE]	1.7	3.8	–
COc1ccc(C=O)cc1 [4-METHOXYBENZALDEHYDE]	1.0	4.7	–
CC(=O)CC(C)(C)c1ccccc1 [4-METHYL-4-PHENYL-2-PENTANONE]	1.4	4.2	–
CCCCCCC1(C)CCC(=O)O1 (centres unmarked) [4-METHYL-GAMMA-DECALACTONE]	0.9	5.6	–
CCCCCCCC1CCC(=O)O1 (centres unmarked) [5-HEPTYL-2-DIHYDROFURANONE]	–	–	Increase In intensity: 1.1; Odour reduction value: 3.8
CCCCCC1CCC(=O)O1 (centres unmarked) [5-PENTYLDIHYDROFURAN-2-ONE]	−0.8	4.1	–
CC(=O)c1cc2c(cc1C)C(C)(C)C(C)CC2(C)C (centres unmarked) [6-ACETYL-1,1,2,4,4,7-[…]]	0.0	3.1	–
C=CCCCCCCCCC=O [10-UNDECENAL]	1.6	3.3	–
C=CCOC(=O)COC1CCCCC1 [(CYCLOHEXYLOXY)-ACETIC ACID-2-PROPENYL ESTER]	−0.5	4.3	–
CCC/C=C/C=O [(E)-2-HEXENAL]	−0.2	3.1	–
C/C(=C\C#N)CCc1ccccc1 [(E)-3-METHYL-5-PHENYL-2-PENTENE NITRILE]	1.2	5.1	–
O=C1CCCCCC/C=C/CCCCCCC1 [(E)-8-CYCLOHEXADECEN-1-ONE]	0.2	4.0	–
CCCC1CCOC(C)S1 (centres unmarked) [(Z)-2-METHYL-4-PROPYL-1,3-OXATHIANE]	0.0	3.1	–
CCCCCCCCCC/C=C\C#N [(Z)-2-TRIDECENE NITRILE]	1.6	3.8	–
CC/C=C\CCOCCC#N [(Z)-3-(3-HEXENYLOXY)-PROPANENITRILE]	1.5	5.0	–
CC(=O)OC(C)c1ccccc1 (centres unmarked) [ACETIC ACID-1-PHENYLETHYL ESTER]	−0.4	4.0	–
CC(=O)OCC(C)CC(C)(C)c1ccccc1 (centres unmarked) [ACETIC ACID-2,4-DIMETHYL-4-PHENYLPENTYL ESTER]	1.6	3.4	–
CC(=O)OCCc1ccccc1 [ACETIC ACID-2-PHENYLETHYL ESTER]	1.0	4.0	–
CC/C=C/CCOC(C)=O [ACETIC ACID-3(E)-HEXENYL ESTER]	1.3	3.1	–
CC(=O)OCCC(C)C [ACETIC ACID-3-METHYLBUTYL ESTER]	1.3	5.8	–
